According to ChEMBL document CHEMBL1667814 (Bioorg Med Chem, 2011):

Legend:
Cholinesterase = Cholinesterase (Equus caballus, UniProt P81908)
Description: Inhibition of equine serum BChE by Ellman's method

Acetylcholinesterase = Acetylcholinesterase (Electrophorus electricus, UniProt O42275)
Acetylcholinesterase, sequence (O42275 whole entry): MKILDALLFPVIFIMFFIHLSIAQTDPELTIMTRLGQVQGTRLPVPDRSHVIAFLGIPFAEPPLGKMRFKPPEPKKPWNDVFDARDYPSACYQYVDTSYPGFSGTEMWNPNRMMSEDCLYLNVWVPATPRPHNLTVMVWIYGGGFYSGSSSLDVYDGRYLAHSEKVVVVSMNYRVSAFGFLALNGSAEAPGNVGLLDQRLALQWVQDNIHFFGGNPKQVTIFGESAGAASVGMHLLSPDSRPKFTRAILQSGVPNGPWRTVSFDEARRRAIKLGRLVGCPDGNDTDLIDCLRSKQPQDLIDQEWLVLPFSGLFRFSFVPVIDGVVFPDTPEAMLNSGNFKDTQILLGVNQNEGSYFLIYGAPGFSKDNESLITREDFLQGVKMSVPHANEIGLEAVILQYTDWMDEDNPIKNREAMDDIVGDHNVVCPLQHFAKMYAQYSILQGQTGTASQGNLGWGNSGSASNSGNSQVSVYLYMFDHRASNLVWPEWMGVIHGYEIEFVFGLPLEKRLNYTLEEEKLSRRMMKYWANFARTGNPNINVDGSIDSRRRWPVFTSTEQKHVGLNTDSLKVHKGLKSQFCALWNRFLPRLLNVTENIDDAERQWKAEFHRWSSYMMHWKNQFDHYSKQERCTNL
Description: Inhibition of electric eel AChE by Ellman's method

Cholinesterase, sequence (P81908 whole entry): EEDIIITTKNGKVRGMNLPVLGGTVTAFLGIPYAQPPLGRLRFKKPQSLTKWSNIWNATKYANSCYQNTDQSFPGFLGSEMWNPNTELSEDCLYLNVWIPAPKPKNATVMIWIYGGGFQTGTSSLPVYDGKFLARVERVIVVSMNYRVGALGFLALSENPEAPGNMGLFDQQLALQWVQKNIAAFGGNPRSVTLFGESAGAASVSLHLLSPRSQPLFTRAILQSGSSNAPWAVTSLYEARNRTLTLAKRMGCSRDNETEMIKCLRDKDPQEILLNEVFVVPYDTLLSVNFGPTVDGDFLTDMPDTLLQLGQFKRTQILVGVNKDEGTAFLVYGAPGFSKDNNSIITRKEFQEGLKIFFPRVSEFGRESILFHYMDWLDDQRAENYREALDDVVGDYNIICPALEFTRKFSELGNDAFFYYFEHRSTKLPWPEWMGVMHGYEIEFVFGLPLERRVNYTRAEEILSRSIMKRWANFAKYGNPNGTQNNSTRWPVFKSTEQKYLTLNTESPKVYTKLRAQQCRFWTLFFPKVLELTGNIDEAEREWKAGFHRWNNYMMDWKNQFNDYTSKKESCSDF

Row | SMILES | IC50 (Cholinesterase) | IC50 (Acetylcholinesterase; read-out: IC50) | IC50 (Acetylcholinesterase; read-out: pIC50 (converted))
1 | c1ccc(C/N=c2/c3ccccc3nc3n2CCCCCC3)cc1 | 1100 nM | > 500000 nM | 
2 | c1ccc(C/N=c2/c3ccccc3nc3n2CCC3)cc1 | 1900 nM | 13900 nM | 
3 | c1ccc2/c(=N\CCCCCCC/N=c3\c4ccccc4nc4n3CCC4)n3c(nc2c1)CCC3 | 88 nM | 79 nM | 
4 | CN(CCCN=c1c2ccccc2nc2n1CCC2)CCC/N=c1\c2ccccc2nc2n1CCC2 | 547 nM | 541 nM | 
5 | CC(=O)N(CCCN=c1c2ccccc2nc2n1CCC2)CCC/N=c1\c2ccccc2nc2n1CCC2 | 267 nM | 331 nM | 
6 | c1ccc2c(=NCCCCCCC/N=c3\c4ccccc4nc4n3CCCCCC4)n3c(nc2c1)CCCCCC3 | 27 nM | 65 nM | 
7 | CN(CCCN=c1c2ccccc2nc2n1CCCCCC2)CCC/N=c1\c2ccccc2nc2n1CCCCCC2 | 197 nM | 203 nM | 
8 | CC(=O)N(CCCN=c1c2ccccc2nc2n1CCCCCC2)CCC/N=c1\c2ccccc2nc2n1CCCCCC2 | 72.7 nM | 49 nM | 
9 | c1ccc2c(=NCCCCCCCCN=c3c4ccccc4nc4n3CCC4)n3c(nc2c1)CCC3 | 4.8 nM | 58 nM | 
10 | CN(CCCCN=c1c2ccccc2nc2n1CCC2)CCCN=c1c2ccccc2nc2n1CCC2 | 81.3 nM | 561 nM | 
11 | CC(=O)N(CCCCN=c1c2ccccc2nc2n1CCC2)CCCN=c1c2ccccc2nc2n1CCC2 | 4 nM | 20.9 nM | 
12 | CCC(=O)N(CCCCN=c1c2ccccc2nc2n1CCC2)CCCN=c1c2ccccc2nc2n1CCC2 | 5.9 nM | 18 nM | 
13 | C=C(C)C(=O)N(CCCCN=c1c2ccccc2nc2n1CCC2)CCCN=c1c2ccccc2nc2n1CCC2 | 10.6 nM | 6.7 nM | 
14 | c1ccc2c(=NCCCCCCCCN=c3c4ccccc4nc4n3CCCCCC4)n3c(nc2c1)CCCCCC3 | 76 nM | 14400 nM | 
15 | CN(CCCCN=c1c2ccccc2nc2n1CCCCCC2)CCCN=c1c2ccccc2nc2n1CCCCCC2 | 51.4 nM | 606 nM | 
16 | CC(=O)N(CCCCN=c1c2ccccc2nc2n1CCCCCC2)CCCN=c1c2ccccc2nc2n1CCCCCC2 | 43.1 nM | 177 nM | 
17 | CCC(=O)N(CCCCN=c1c2ccccc2nc2n1CCCCCC2)CCCN=c1c2ccccc2nc2n1CCCCCC2 | 46.3 nM | 289 nM | 
18 | C=C(C)C(=O)N(CCCCN=c1c2ccccc2nc2n1CCCCCC2)CCCN=c1c2ccccc2nc2n1CCCCCC2 | 37.7 nM | 153 nM | 
19 | CC(=O)NCC(=O)N(CCCCN=c1c2ccccc2nc2n1CCCCCC2)CCCN=c1c2ccccc2nc2n1CCCCCC2 | 122 nM | 75.6 nM | 
20 | CC(C)(C)C(=O)N(CCCCN=c1c2ccccc2nc2n1CCCCCC2)CCCN=c1c2ccccc2nc2n1CCCCCC2 | 25.5 nM | 536 nM | 53.6 nM
21 | CCCCC(=O)N(CCCCN=c1c2ccccc2nc2n1CCCCCC2)CCCN=c1c2ccccc2nc2n1CCCCCC2 | 12.9 nM | 1060 nM | 
22 | CC(C)CC(=O)N(CCCCN=c1c2ccccc2nc2n1CCCCCC2)CCCN=c1c2ccccc2nc2n1CCCCCC2 | 8.1 nM | 621 nM | 
23 | CC(C)CCC(=O)N(CCCCN=c1c2ccccc2nc2n1CCCCCC2)CCCN=c1c2ccccc2nc2n1CCCCCC2 | 3 nM | 792 nM | 
